{"source": "patent US6930103B2", "about": "“Use of vasopeptidase inhibitors in the treatment of metabolic diseases, nephropathy and advanced glycation end-product associated diseases” (Aventis Pharma Deutschland GmbH, priority 2002, dated 2005)", "key": {"[1]": {"test_system": "Zucker Diabetic Fatty (ZDF) Rats (ZDF Gmi fa/fa)", "assay": "Urinary excretion of albumin and creatinine in ZDF rats treated from 10 to 37 weeks of age", "type": "in vivo, rat", "settings": "ZDF rats, mean", "procedure": "(§1) The protein and creatinine excretion in the urine of male Zucker Diabetic Fatty (ZDF) Rats (ZDF Gmi fa/fa) and heterozygous control animals (ZDF Gmi −/+) of 10, 17, 27 and 37 weeks age was determined. In further groups, diabetic rats were chronically given either ramipril (1 mg/kg/day, in drinking water) or a compound of formula (II-B) (30 mg/kg/day, in food) over a period from 10 to 37 weeks. The animals were sacrificied after 37 weeks, and their kidneys examined histologically."}, "[2]": {"test_system": "fat ZDF rats", "assay": "Histological examination of kidneys of ZDF rats after 6 months treatment", "type": "in vivo, rat", "parameters": "Armanni-Ebstein cells MEAN SEVERITY / Glomerulosclerosis MEAN SEVERITY / Atrophy: renal tubule MEAN SEVERITY / Casts: renal tubule MEAN SEVERITY: scale not given here", "procedure": "as §1\nIn the attached tables a summary of the findings on the kidneys after a treatment period of 6 months is listed."}, "[3]": {"test_system": "ZDF rats", "assay": "Urinary albumin/creatinine in ZDF rats, treatment starting at an animal age of 6 months", "type": "in vivo, rat", "settings": "start at age 6 months, mean"}, "[4]": {"test_system": "Goto-Kakizaki (GK) rats", "assay": "Albumin and creatinine excretion in Goto-Kakizaki (GK) rats", "type": "in vivo, rat", "settings": "start at age 6 months, mean", "procedure": "The albumin and creatinine excretion in Goto-Kakizaki (GK) rats was determined. GK rats are a model for Type II diabetes. One group was left untreated, one was treated with the ACE/NEP inhibitor of formula (II-B) and one group was treated with the ACE inhibitor ramipril. [table]"}, "[5]": {"test_system": "Wistar rats", "assay": "Albumin and creatinine excretion in Wistar rats (non-diabetic nephropathy)", "type": "in vivo, rat", "settings": "Wistar rats, start at age 6 months, mean", "procedure": "The albumin and creatinine excretion in Wistar rats was determined. One group was left untreated, one was treated with the ACE/NEP inhibitor of formula (II-B) and one group was treated with the ACE inhibitor ramipril. Wistar rats are non-diabetic and develop proteinuria and structural kidney damage during adult life. Wistar rats are therefore a model for non-diabetic nephropathy. [table]"}, "[6]": {"test_system": "Zucker diabetic fatty rats", "assay": "Blood glucose analysis in ZDF rats", "type": "in vivo, rat", "settings": "for blood glucose, mean: ZDF rats", "procedure": "(§2) Blood glucose and HbA1c was measured in 10- and 17-week-old male Zucker diabetic fatty rats (Genetic Model Inc.), control rats (Genetic Model Inc.) and male ZDF rats treated for seven weeks with 30 mg/kg/d of compound (II-B), 35 mg/kg/d of compound (III-B) and 1 mg/kg/d ramipril. Fifteen animals were analyzed in each group.\nBlood samples for glucose determination were obtained from ZDF rats using standard sampling tubes. Within 30 minutes of collection, samples were separated from the cells by centrifugation. Quantitative determination of blood glucose in serum was performed with an enzymatic in vitro test from Roche Diagnostics GmbH (Gluco-quant, Roche Diagnostics GmbH) using the automated clinical chemistry analyzer Boehringer Mannheim/Hitachi 912."}, "[7]": {"test_system": "Zucker diabetic fatty rats", "assay": "HbA1c analysis in ZDF rats", "type": "in vivo, rat", "settings": "for HbA1c, mean: ZDF rats", "procedure": "as §2\nTo obtain blood samples for HbA1c determination, disposable capillary tubes were used. HbA1c values were obtained from hemolyzed whole blood samples with a turbidimetric inhibition immunoassay (Tina-quant, Roche Diagnostics GmbH) and hemoglobin concentrations were determined in a second channel on an automated clinical chemistry analyzer (Boehringer Mannheim/Hitachi 912). HbA1c concentration in percent were calculated from HbA1c to total hemoglobin."}, "[8]": {"test_system": "isolated aortic rings of rabbits", "assay": "Relaxation of aortic rings by acetylcholine in rabbits fed an atherogenic diet", "type": "in vivo, White New Zealand rabbits", "settings": "varied diet rabbits, mean ± SEM", "excerpt": "It was shown in the atherogenic rabbit model (White New Zealand rabbits were fed with 0.25% cholesterol plus 3% coconut oil) that even a short 6 week period of an atherogenic diet leads to sustained endothelial dysfunction, even though the animals received a normal diet for 3 months thereafter. […] The endothelium-dependent relaxation of isolated aortic rings of rabbits as well as the release of nitric oxide and superoxide from endothelial cells serve as measures of endothelial dysfunction. […] (II-B) [table]"}, "[9]": {"test_system": "endothelial cells", "assay": "NO and superoxide release from endothelial cells in rabbits fed an atherogenic diet", "type": "in vivo, White New Zealand rabbits", "settings": "varied diet rabbits; mean ± SEM", "excerpt": "It was shown in the atherogenic rabbit model (White New Zealand rabbits were fed with 0.25% cholesterol plus 3% coconut oil) that even a short 6 week period of an atherogenic diet leads to sustained endothelial dysfunction, even though the animals received a normal diet for 3 months thereafter.\nThe endothelium-dependent relaxation of isolated aortic rings of rabbits as well as the release of nitric oxide and superoxide from endothelial cells serve as measures of endothelial dysfunction.\n• Groups: • Standard: 18 weeks normal diet • Atherogenic: 18 weeks atherogenic diet (3% Coconut oil+0.25% Cholesterol) • Varied diet (Var.): 6 weeks atherogenic diet+12 weeks normal diet • Varied Diet+ramipril: 6 weeks atherogenic diet+12 weeks normal diet+ramipril • Varied diet+compound (II-B): 6 weeks atherogenic diet+12 weeks normal diet+cpd. (II-B)\nNO and O2^− are markers for endothelial function: increased relaxation and increased NO levels are beneficial, while increased O2^− formation inhibits the beneficial effects of NO."}, "[10]": {"settings": "acute treatment; Chen et al., Hypertension 2001; cited from earlier work"}, "[11]": {"settings": "kidneys, male fat ZDF rats, terminal sacrifice"}, "[12]": {"settings": "kidneys, male fat ZDF rats, terminal sacrifice, examined: D1 9, D4 8"}, "[13]": {"settings": "age 10 weeks (start of treatment)"}, "[14]": {"settings": "age 17 weeks (treated for seven weeks)"}}, "data": [{"smiles": "CCOC(=O)[C@H](CCc1ccccc1)N[C@@H](C)C(=O)N1[C@H](C(=O)O)C[C@@H]2CCC[C@@H]21", "note": "[ramipril, reference compound]", "values": [{"measurement": "Urine excretion Albumin", "setting": "[1]; week 0 of treatment", "value": 0.24, "unit": "mg/kg/h"}, {"measurement": "Urine excretion Albumin/Creatinine", "setting": "[1]; week 0 of treatment", "value": 37.31, "unit": "mg/mmol"}, {"measurement": "Urine excretion Albumin", "setting": "[1]; week 7 of treatment", "value": 1.36, "unit": "mg/kg/h"}, {"measurement": "Urine excretion Albumin/Creatinine", "setting": "[1]; week 7 of treatment", "value": 207.35, "unit": "mg/mmol"}, {"measurement": "Urine excretion Albumin", "setting": "[1]; week 17 of treatment", "value": 6.26, "unit": "mg/kg/h"}, {"measurement": "Urine excretion Albumin/Creatinine", "setting": "[1]; week 17 of treatment", "value": 694.20, "unit": "mg/mmol"}, {"measurement": "Urine excretion Albumin", "setting": "[1]; week 27 of treatment", "value": 10.11, "unit": "mg/kg/h"}, {"measurement": "Urine excretion Albumin/Creatinine", "setting": "[1]; week 27 of treatment", "value": 1077.88, "unit": "mg/mmol"}, {"measurement": "Incidence of glomerulosclerosis or associated degenerative lesions compared to fat ZDF controls", "setting": "[2]; in words", "value": "no differences"}, {"measurement": "Armanni-Ebstein cells GRADE 1: number of animals", "setting": "[2]; [11]", "value": 1}, {"measurement": "Armanni-Ebstein cells GRADE 2: number of animals", "setting": "[2]; [11]", "value": 6}, {"measurement": "Armanni-Ebstein cells MEAN SEVERITY", "setting": "[2]; [11]", "value": 1.9}, {"measurement": "Atrophy: renal tubule GRADE 1: number of animals", "setting": "[2]; [11]", "value": 4}, {"measurement": "Atrophy: renal tubule GRADE 2: number of animals", "setting": "[2]; [11]", "value": 4}, {"measurement": "Atrophy: renal tubule GRADE 3: number of animals", "setting": "[2]; [11]", "value": 1}, {"measurement": "Atrophy: renal tubule MEAN SEVERITY", "setting": "[2]; [11]", "value": 1.7}, {"measurement": "Casts: renal tubule GRADE 1: number of animals", "setting": "[2]; [11]", "value": 1}, {"measurement": "Casts: renal tubule GRADE 2: number of animals", "setting": "[2]; [11]", "value": 7}, {"measurement": "Casts: renal tubule MEAN SEVERITY", "setting": "[2]; [11]", "value": 1.9}, {"measurement": "Dilatation: pelvis GRADE 2: number of animals", "setting": "[2]; [11]", "value": 1}, {"measurement": "Dilatation: pelvis GRADE 3: number of animals", "setting": "[2]; [11]", "value": 2}, {"measurement": "Dilatation: pelvis GRADE 4: number of animals", "setting": "[2]; [11]", "value": 2}, {"measurement": "Dilatation: pelvis MEAN SEVERITY", "setting": "[2]; [11]", "value": 3.2}, {"measurement": "Glomerulosclerosis GRADE 2: number of animals", "setting": "[2]; [11]", "value": 4}, {"measurement": "Glomerulosclerosis GRADE 3: number of animals", "setting": "[2]; [11]", "value": 2}, {"measurement": "Glomerulosclerosis MEAN SEVERITY", "setting": "[2]; [11]", "value": 2.3}, {"measurement": "Armanni-Ebstein cells: number of animals with finding (total affected)", "setting": "[2]; [12]", "value": 7}, {"measurement": "Atrophy: renal tubule: number of animals with finding (total affected)", "setting": "[2]; [12]", "value": 9}, {"measurement": "Casts: renal tubule: number of animals with finding (total affected)", "setting": "[2]; [12]", "value": 8}, {"measurement": "Dilatation: pelvis: number of animals with finding (total affected)", "setting": "[2]; [12]", "value": 5}, {"measurement": "Glomerulosclerosis: number of animals with finding (total affected)", "setting": "[2]; [12]", "value": 6}, {"measurement": "Albumin/Creatinine", "setting": "[3]; 6 weeks treatment", "value": 1249.59, "unit": "mg/mmol"}, {"measurement": "Albumin/Creatinine", "setting": "[3]; 12 weeks treatment", "value": 841.69, "unit": "mg/mmol"}, {"measurement": "Albumin/Creatinine", "setting": "[3]; Basal", "value": 1330.99, "unit": "mg/mmol"}, {"measurement": "Albumin/Creatinine", "setting": "[4]; 6 weeks treatment", "value": 161.71, "unit": "mg/mmol"}, {"measurement": "Albumin/Creatinine", "setting": "[4]; 12 weeks treatment", "value": 244.89, "unit": "mg/mmol"}, {"measurement": "Albumin/Creatinine", "setting": "[4]; Basal", "value": 103.95, "unit": "mg/mmol"}, {"measurement": "Albumin/Creatinine", "setting": "[5]; 6 weeks treatment", "value": 184.27, "unit": "mg/mmol"}, {"measurement": "Albumin/Creatinine", "setting": "[5]; 12 weeks treatment", "value": 188.40, "unit": "mg/mmol"}, {"measurement": "Albumin/Creatinine", "setting": "[5]; Basal", "value": 130.45, "unit": "mg/mmol"}, {"measurement": "Blood glucose concentration compared to the untreated ZDF rats", "setting": "[6]; 17-week-old ZDF rats, in words", "value": "No significant difference"}, {"measurement": "blood glucose, mean", "setting": "[6]; [13]", "value": 11.74, "unit": "mM"}, {"measurement": "blood glucose, mean", "setting": "[6]; [14]", "value": 27.33, "unit": "mM"}, {"measurement": "HbA1c values compared to the untreated ZDF rats", "setting": "[7]; 17-week-old ZDF rats, in words", "value": "No significant difference"}, {"measurement": "HbA1c, mean", "setting": "[7]; [13]", "value": 5.66, "unit": "%"}, {"measurement": "HbA1c, mean", "setting": "[7]; [14]", "value": 9.48, "unit": "%"}, {"measurement": "Relaxation of aortic rings by acetylcholine", "setting": "[8]; ACh 10^−5 mol/L after phenylephrine 10^−7 mol/L", "value": "83.73 ± 4.03", "unit": "%"}, {"measurement": "Relaxation of aortic rings by acetylcholine", "setting": "[8]; ACh 10^−6 mol/L after phenylephrine 10^−7 mol/L", "value": "77.34 ± 3.7", "unit": "%"}, {"measurement": "Relaxation of aortic rings by acetylcholine", "setting": "[8]; ACh 10^−7 mol/L after phenylephrine 10^−7 mol/L", "value": "51.86 ± 4.43", "unit": "%"}, {"measurement": "Relaxation of aortic rings by acetylcholine", "setting": "[8]; ACh 10^−8 mol/L after phenylephrine 10^−7 mol/L", "value": "13.08 ± 2.22", "unit": "%"}, {"measurement": "NO", "setting": "[9]", "value": "368.31 ± 42.25", "unit": "nM"}, {"measurement": "O2^− (superoxide)", "setting": "[9]", "value": "48.09 ± 7.91", "unit": "nM"}]}, {"smiles": "O=C(N[C@H]1CCS[C@H]2CCC[C@@H](C(=O)O)N2C1=O)[C@@H](S)Cc1ccccc1", "note": "[omapatrilat]", "values": [{"measurement": "Natriuretic response compared with ACE inhibitor fosinoprilat", "setting": "[10]", "value": "greater natriuretic response"}]}]}
